Reference: PubChem BioAssay AID246 (DTP/NCI, 2004)
Values joined by “and” are separate entries in the source; they are usually repeats but may differ in a detail not shown here. Identical values can stand only once. Inconclusive results and toxic doses are left out.

Test system: BDF1 mice, P1081 chloroleukemia ip, survival T/C
Test: NCI In Vivo Anticancer Drug Screen. Data for tumor model P1081 Chloroleukemia (intraperitoneal) in B6D2F1 (BDF1) mice
Conditions: endpoint: mean survival time, higher = longer survival
Protocol: The antitumor activity of compounds was measured in mice bearing transplantable tumors. Survival or tumor size were measured and the results are expressed as the measurement made in the treated group (T) divided by the measurement made in the vehicle treated control group (C). The tumor model used in this assay is P1081 Chloroleukemia (intraperitoneal) in B6D2F1 (BDF1) mice

[1] = dose: 31.0 mg/kg/injection, schedule: Q01DX Z (ip), vehicle: carboxymethylcellulose (CMC)
[2] = dose: 62.5 mg/kg/injection, schedule: Q01DX Z (ip), vehicle: carboxymethylcellulose (CMC)
[3] = dose: 63.0 mg/kg/injection, schedule: Q01DX Z (ip), vehicle: carboxymethylcellulose (CMC)
[4] = dose: 125.0 mg/kg/injection, schedule: Q01DX010 (ip), vehicle: saline
[5] = dose: 25.0 mg/kg/injection, schedule: Q01DX Z (ip), vehicle: carboxymethylcellulose (CMC)
[6] = dose: 50.0 mg/kg/injection, schedule: Q01DX Z (ip), vehicle: carboxymethylcellulose (CMC)
[7] = dose: 100.0 mg/kg/injection, schedule: Q01DX Z (ip), vehicle: carboxymethylcellulose (CMC)
[8] = dose: 6.25 mg/kg/injection, schedule: Q01DX Z (ip), vehicle: carboxymethylcellulose (CMC)
[9] = dose: 6.25 mg/kg/injection, schedule: Q01DX Z (sc), vehicle: steriod suspending solution
[10] = dose: 12.5 mg/kg/injection, schedule: Q01DX Z (sc), vehicle: steriod suspending solution
[11] = dose: 25.0 mg/kg/injection, schedule: Q01DX Z (sc), vehicle: steriod suspending solution
[12] = dose: 50.0 mg/kg/injection, schedule: Q01DX Z (sc), vehicle: steriod suspending solution
[13] = dose: 100.0 mg/kg/injection, schedule: Q01DX Z (sc), vehicle: steriod suspending solution
[14] = dose: 10.0 mg/kg/injection, schedule: Q01DX010 (ip), vehicle: saline
[15] = dose: 12.5 mg/kg/injection, schedule: Q01DX Z (ip), vehicle: carboxymethylcellulose (CMC)
[16] = dose: 20.0 mg/kg/injection, schedule: Q01DX010 (ip), vehicle: saline

C=CC(CN1CC1)OC(C)=O (configuration not stated)
T/C (dose: 0.24 mg/kg/injection, schedule: Q01DX Z (ip), vehicle: carboxymethylcellulose (CMC)): 108 % of control | T/C (dose: 0.47 mg/kg/injection, schedule: Q01DX Z (ip), vehicle: carboxymethylcellulose (CMC)): 116 % of control | T/C (dose: 0.94 mg/kg/injection, schedule: Q01DX Z (ip), vehicle: carboxymethylcellulose (CMC)): 103 % of control | T/C (dose: 3.75 mg/kg/injection, schedule: Q01DX Z (ip), vehicle: carboxymethylcellulose (CMC)): 194 % of control | T/C (dose: 4.0 mg/kg/injection, schedule: Q01DX010 (ip), vehicle: saline): 150 % of control | T/C (dose: 8.0 mg/kg/injection, schedule: Q01DX010 (ip), vehicle: saline): 160 % of control | T/C (dose: 16.0 mg/kg/injection, schedule: Q01DX010 (ip), vehicle: saline): 170 % of control

CCn1cnc2c(=S)nc[nH]c21
T/C (dose: 7.75 mg/kg/injection, schedule: Q01DX Z (ip), vehicle: carboxymethylcellulose (CMC)): 112 % of control | T/C (dose: 15.5 mg/kg/injection, schedule: Q01DX Z (ip), vehicle: carboxymethylcellulose (CMC)): 101 % of control | T/C (dose: 15.6 mg/kg/injection, schedule: Q01DX010 (ip), vehicle: saline): 110 % of control and 105 % of control | T/C [1]: 105 % of control | T/C (dose: 31.3 mg/kg/injection, schedule: Q01DX010 (ip), vehicle: saline): 100 % of control and 105 % of control | T/C (dose: 62.5 mg/kg/injection, schedule: Q01DX010 (ip), vehicle: saline): 110 % of control and 105 % of control | T/C [2]: 110 % of control | T/C [3]: 98 % of control | T/C [4]: 115 % of control | T/C (dose: 125.0 mg/kg/injection, schedule: Q01DX Z (ip), vehicle: carboxymethylcellulose (CMC)): 86 % of control

CN(C)c1nc(N(C)C)nc(N(C)C)n1
T/C (dose: 16.0 mg/kg/injection, schedule: Q01DX Z (ip), vehicle: carboxymethylcellulose (CMC)): 95 % of control | T/C (dose: 18.8 mg/kg/injection, schedule: Q01DX010 (ip), vehicle: saline): 116 % of control and 100 % of control | T/C [1]: 92 % of control | T/C (dose: 37.5 mg/kg/injection, schedule: Q01DX010 (ip), vehicle: saline): 116 % of control and 100 % of control | T/C [2]: 88 % of control | T/C [3]: 123 % of control | T/C (dose: 75.0 mg/kg/injection, schedule: Q01DX010 (ip), vehicle: saline): 116 % of control and 105 % of control | T/C (dose: 150.0 mg/kg/injection, schedule: Q01DX010 (ip), vehicle: saline): 111 % of control and 100 % of control

C[C@@H]1C[C@H]2CC[C@H](O2)[C@H](C)C(=O)O[C@@H](C)C[C@@H]2CC[C@@H](O2)[C@@H](C)C(=O)O[C@H](C)C[C@H]2CC[C@H](O2)[C@H](C)C(=O)O[C@@H](C)C[C@@H]2CC[C@@H](O2)[C@@H](C)C(=O)O1
T/C [5]: 107 % of control | T/C [6]: 109 % of control | T/C [7]: 100 % of control | T/C (dose: 200.0 mg/kg/injection, schedule: Q01DX Z (ip), vehicle: carboxymethylcellulose (CMC)): 93 % of control

Nc1ncnc2[nH]ncc12
T/C (dose: 0.78 mg/kg/injection, schedule: Q01DX Z (ip), vehicle: carboxymethylcellulose (CMC)): 94 % of control | T/C (dose: 1.5 mg/kg/injection, schedule: Q01DX010 (ip), vehicle: saline): 111 % of control | T/C (dose: 1.56 mg/kg/injection, schedule: Q01DX Z (ip), vehicle: carboxymethylcellulose (CMC)): 103 % of control | T/C (dose: 3.0 mg/kg/injection, schedule: Q01DX010 (ip), vehicle: saline): 116 % of control and 100 % of control | T/C (dose: 3.12 mg/kg/injection, schedule: Q01DX Z (ip), vehicle: carboxymethylcellulose (CMC)): 112 % of control | T/C (dose: 6.0 mg/kg/injection, schedule: Q01DX010 (ip), vehicle: saline): 111 % of control and 105 % of control | T/C [8]: 94 % of control | T/C (dose: 12.0 mg/kg/injection, schedule: Q01DX010 (ip), vehicle: saline): 88 % of control and 105 % of control

Clc1ccc(C(c2ccccc2Cl)C(Cl)Cl)cc1 (configuration not stated)
T/C (dose: 0.8 mg/kg/injection, schedule: Q01DX Z (sc), vehicle: steriod suspending solution): 110 % of control | T/C (dose: 3.1 mg/kg/injection, schedule: Q01DX Z (sc), vehicle: steriod suspending solution): 117 % of control | T/C [9]: 101 % of control | T/C [10]: 100 % of control | T/C [11]: 93 % of control and 95 % of control | T/C [12]: 93 % of control | T/C [13]: 87 % of control

Cn1c(N)nc2nc[nH]c2c1=S
T/C (dose: 1.6 mg/kg/injection, schedule: Q01DX Z (ip), vehicle: carboxymethylcellulose (CMC)): 92 % of control | T/C (dose: 3.1 mg/kg/injection, schedule: Q01DX Z (ip), vehicle: carboxymethylcellulose (CMC)): 95 % of control | T/C [8]: 95 % of control and 98 % of control | T/C [14]: 120 % of control and 100 % of control | T/C [15]: 96 % of control and 102 % of control | T/C [16]: 105 % of control | T/C [5]: 96 % of control and 100 % of control and 105 % of control | T/C [6]: 98 % of control and 104 % of control | T/C [7]: 98 % of control and 102 % of control

C[C@]12C=CC(=O)C=C1CC[C@@H]1[C@@H]2C(=O)C[C@@]2(C)[C@H]1CC[C@]2(O)C(=O)CO
T/C [9]: 114 % of control | T/C (dose: 12.5 mg/kg/injection, schedule: Q01DX010 (sc), vehicle: steriod suspending solution): 93 % of control and 100 % of control | T/C [10]: 111 % of control and 124 % of control | T/C (dose: 25.0 mg/kg/injection, schedule: Q01DX010 (sc), vehicle: steriod suspending solution): 112 % of control and 100 % of control and 101 % of control | T/C [11]: 105 % of control and 117 % of control | T/C (dose: 50.0 mg/kg/injection, schedule: Q01DX010 (sc), vehicle: steriod suspending solution): 107 % of control and 95 % of control and 100 % of control | T/C [12]: 105 % of control and 91 % of control | T/C (dose: 100.0 mg/kg/injection, schedule: Q01DX010 (sc), vehicle: steriod suspending solution): 112 % of control and 92 % of control and 93 % of control | T/C [13]: 92 % of control and 102 % of control | T/C (dose: 200.0 mg/kg/injection, schedule: Q01DX010 (sc), vehicle: steriod suspending solution): 92 % of control and 93 % of control | T/C (dose: 200.0 mg/kg/injection, schedule: Q01DX Z (sc), vehicle: steriod suspending solution): 98 % of control

CCOC(N)=O
T/C [4]: 110 % of control and 100 % of control | T/C (dose: 125.0 mg/kg/injection, schedule: Q01DX Z (ip), vehicle: saline): 95 % of control and 102 % of control | T/C (dose: 250.0 mg/kg/injection, schedule: Q01DX010 (ip), vehicle: saline): 90 % of control and 100 % of control | T/C (dose: 250.0 mg/kg/injection, schedule: Q01DX Z (ip), vehicle: saline): 100 % of control and 101 % of control | T/C (dose: 500.0 mg/kg/injection, schedule: Q01DX010 (ip), vehicle: saline): 90 % of control and 100 % of control | T/C (dose: 500.0 mg/kg/injection, schedule: Q01DX Z (ip), vehicle: saline): 92 % of control

CN(C)c1ccc(/C=C/c2ccnc3ccccc23)cc1
T/C (dose: 1.56 mg/kg/injection, schedule: Q01DX Z (ip), vehicle: water): 100 % of control | T/C (dose: 3.12 mg/kg/injection, schedule: Q01DX Z (ip), vehicle: water): 94 % of control | T/C (dose: 5.0 mg/kg/injection, schedule: Q01DX010 (ip), vehicle: saline): 111 % of control and 100 % of control | T/C [8]: 110 % of control | T/C (dose: 6.25 mg/kg/injection, schedule: Q01DX Z (ip), vehicle: water): 101 % of control | T/C [14]: 110 % of control and 100 % of control | T/C [15]: 115 % of control | T/C (dose: 12.5 mg/kg/injection, schedule: Q01DX Z (ip), vehicle: water): 107 % of control | T/C [16]: 111 % of control and 100 % of control | T/C [5]: 102 % of control | T/C (dose: 40.0 mg/kg/injection, schedule: Q01DX010 (ip), vehicle: saline): 111 % of control and 95 % of control | T/C [6]: 119 % of control and 97 % of control | T/C [7]: 104 % of control

CCC(=O)O[C@H]1CC[C@H]2[C@@H]3CCC4=CC(=O)CC[C@]4(C)[C@H]3CC[C@]12C
T/C (dose: 31.25 mg/kg/injection, schedule: Q01DX Z (sc), vehicle: steriod suspending solution): 92 % of control | T/C (dose: 62.5 mg/kg/injection, schedule: Q01DX Z (sc), vehicle: steriod suspending solution): 111 % of control | T/C (dose: 125.0 mg/kg/injection, schedule: Q01DX Z (sc), vehicle: steriod suspending solution): 107 % of control and 116 % of control | T/C (dose: 250.0 mg/kg/injection, schedule: Q01DX Z (sc), vehicle: steriod suspending solution): 107 % of control | T/C (dose: 500.0 mg/kg/injection, schedule: Q01DX Z (sc), vehicle: steriod suspending solution): 95 % of control | T/C (dose: 2000.0 mg/kg/injection, schedule: Q01DX Z (sc), vehicle: steriod suspending solution): 122 % of control

Cc1n[nH]c(=O)[nH]c1=O
T/C (dose: 200.0 mg/kg/injection, schedule: Q01DX Z (ip), vehicle: other): 98 % of control | T/C (dose: 400.0 mg/kg/injection, schedule: Q01DX Z (ip), vehicle: other): 105 % of control | T/C (dose: 800.0 mg/kg/injection, schedule: Q01DX Z (ip), vehicle: other): 106 % of control and 96 % of control
